Data reported in PMC11585513, “A novel ACE inhibitory peptide from Pelodiscus sinensis Wiegmann meat water-soluble protein hydrolysate” (Amino Acids, 2024).
Like-named read-outs stand apart in the source and are kept apart here. Peptide text beside a SMILES is read from it.

Columns and labels:
ACE [1] = conditions: cited from earlier work
Protocol: The kinetics of IEWEF inhibition of ACE were determined by Lineweaver–Burk plot (Fig. 1). […] We speculate that IEWEF interacts with the non-active domain of ACE to form an enzyme-inhibitor complex even in the presence of substrate (Xie et al. [2022]). A number of non-competitive ACE inhibitory peptides have been reported in recent years, including GVSLPEW, GYGGVSLPEW, and VGINYW from α-lactalbumin (W ...

ACE [2] = conditions: at 0.5 mg/mL; ref Girgih et al. [2014]; cited from earlier work
Protocol: This is within the range (0.3 ~ 1000.0 µM) known to reduce blood pressure (Chen et al. [2022]). There are several reported ACE inhibitory peptides similar to IEWEF in their amino acid compositions, including IE, EW, IEW, EF, LEF and IEEAF. The peptides IE and EW are both ACE inhibitory peptides isolated from milk hydrolysates, although their IC50 values have not been reported thus far (van Platerink et al. [2008]).

ACE [3] = target: T1, ACE (Oryctolagus cuniculus, UniProt P12822); experiment: In vitro assay of ACE inhibitory activity (HHL substrate, HPLC of hippuric acid); type: biochemical, rabbit; conditions: for inhibition at 86.57 µM: 86.57 μmol/L; for inhibition at 86.57 µM / inhibition at 173.13 µM / inhibition at 346.26 µM / inhibition at 692.52 µM / inhibition at 2770.08 µM: read-out: ACE inhibitory activities (%); for inhibition at 173.13 µM: 173.13 μmol/L; for inhibition at 346.26 µM: 346.26 μmol/L; for inhibition at 692.52 µM: 692.52 μmol/L; for inhibition at 2770.08 µM: 2770.08 μmol/L
T1 construct: ACE (1U, derived from rabbit lung, CAS 207386-83-2); purchased Sigma-Aldrich Co. (St. Louis, MO, USA); host or cells: rabbit lung
T1 sequence (P12822 34-1310): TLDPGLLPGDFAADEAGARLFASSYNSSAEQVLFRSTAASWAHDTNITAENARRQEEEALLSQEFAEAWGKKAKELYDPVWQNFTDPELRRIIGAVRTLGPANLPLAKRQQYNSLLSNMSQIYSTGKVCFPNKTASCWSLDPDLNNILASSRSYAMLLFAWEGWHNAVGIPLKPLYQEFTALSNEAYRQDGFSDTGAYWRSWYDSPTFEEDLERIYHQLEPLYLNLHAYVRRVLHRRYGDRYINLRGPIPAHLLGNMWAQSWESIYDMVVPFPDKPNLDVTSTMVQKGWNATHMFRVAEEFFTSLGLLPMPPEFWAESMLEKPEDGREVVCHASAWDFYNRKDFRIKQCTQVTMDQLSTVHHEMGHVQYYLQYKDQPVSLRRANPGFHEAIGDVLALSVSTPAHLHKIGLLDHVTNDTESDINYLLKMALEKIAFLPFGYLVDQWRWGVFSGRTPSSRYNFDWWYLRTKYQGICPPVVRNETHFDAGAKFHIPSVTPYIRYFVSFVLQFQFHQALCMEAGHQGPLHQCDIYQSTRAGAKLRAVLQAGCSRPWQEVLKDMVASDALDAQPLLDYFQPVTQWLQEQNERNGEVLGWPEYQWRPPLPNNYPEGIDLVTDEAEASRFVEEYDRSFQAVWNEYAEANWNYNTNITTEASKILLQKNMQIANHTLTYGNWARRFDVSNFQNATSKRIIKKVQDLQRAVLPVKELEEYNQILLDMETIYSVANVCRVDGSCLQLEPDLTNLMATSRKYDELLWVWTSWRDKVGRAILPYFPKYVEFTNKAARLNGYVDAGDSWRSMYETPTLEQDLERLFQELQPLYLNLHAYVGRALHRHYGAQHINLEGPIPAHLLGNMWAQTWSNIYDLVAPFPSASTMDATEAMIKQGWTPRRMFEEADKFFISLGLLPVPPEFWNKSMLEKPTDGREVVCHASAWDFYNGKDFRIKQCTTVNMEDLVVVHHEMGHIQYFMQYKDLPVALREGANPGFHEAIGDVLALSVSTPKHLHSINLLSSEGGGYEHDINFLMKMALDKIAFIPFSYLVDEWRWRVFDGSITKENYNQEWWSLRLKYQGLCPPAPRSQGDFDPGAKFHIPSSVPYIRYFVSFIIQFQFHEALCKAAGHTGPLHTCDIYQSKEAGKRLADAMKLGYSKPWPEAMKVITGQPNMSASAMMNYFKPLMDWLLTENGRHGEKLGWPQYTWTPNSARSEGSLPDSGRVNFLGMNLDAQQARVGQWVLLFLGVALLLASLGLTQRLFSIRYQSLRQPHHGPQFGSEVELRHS
Protocol: WSPM prepared in our previous work (Sun et al. [2022]) and stored at − 20 °C after freeze-drying was used for this study. ACE (1U, derived from rabbit lung, CAS […]), Hippuryl-L-histidyl-L-leucine (HHL, CAS […]), and hippuric acid (HA, CAS 495-69-2) were obtained from Sigma-Aldrich Co. (St. Louis, MO, USA). The reagents used for HPLC analysis were all HPLC grade, and all other reagents used were analytical grade. The amounts of each protein were quantified using the BCA Protein Assay Kit (Bio-Rad, USA). All the protein samples were packed separately and stored at − 80 °C.
In vitro assay of ACE inhibitory activities of the selected peptides ACE inhibitory activity was evaluated in vitro according to previous methods with some modifications (Liao et al. [2018]; Xie et al. [2022]). All of the assays were carried out in 0.1 mol/L sodium borate buffer (containing 0.3 mol/L NaCl at pH 8.3). For each peptide of interest, 40 µL ACE solution (100 mU/mL) was pre-incubated with the peptide (60 µL) at 37 °C for 10 min. Next, 40 µL HHL solution (5.40 mmol/L) was added to the solution at 37 °C, and the reaction was allowed to proceed for 15 min at 37 °C. Finally, 60 µL 1 mol/L HCl was added to terminate the reaction. A borate buffer only control processed using the above procedure was also included for use as a blank. To quantify the amount of HA (hippuric acid) generated, 20 µL of reaction solution (pre-filtered using a 0.45 µm microporous membrane) was analyzed by HPLC (Waters e2695, Milford, USA) on a C18 column (150 × 4.6 mm, 5 µm; ThermoFisher Scientific, USA). The run conditions were as follows: mobile phase, methanol/water/phosphoric acid solution (15:84.9:0.1, V/V/V); flow rate, 1.0 mL/min; UV detection wavelength, 228 nm. All experiments were conducted in triplicate. ACE inhibitory activity was calculated according to the following equation:1 ACE inhibitory activity\%=B-A/B×100\% where A represents the peak area of HA in the sample, and B represents the peak area of HA in the blank.

[4] = from α-lactalbumin, ref Wei et al. [2022]
[5] = from Carapax Trionycis, ref Liao et al. [2018]

## GVSLPEW
ACE [1]; [4]
  Inhibition mode: non-competitive

## GYGGVSLPEW
ACE [1]; [4]
  Inhibition mode: non-competitive

## KRER
ACE [1]; [5]
  Inhibition mode: non-competitive

## KIGSRSRFEVT
ACE [1]; from the shiitake mushroom, ref Paisansak et al. [2021]
  Inhibition mode: non-competitive

## IEEAF
ACE [2]
  Inhibitory activity against ACE: around 40%

## KHMFK
ACE [1]; [5]
  Inhibition mode: non-competitive

## VGINYW
ACE [1]; [4]
  Inhibition mode: non-competitive

## WGAP
ACE [1]; from rabbit meat, ref Chen et al. [2021]
  Inhibition mode: non-competitive

## CC[C@H](C)[C@H](N)C(=O)N[C@@H](CCC(=O)O)C(=O)N[C@@H](Cc1c[nH]c2ccccc12)C(=O)N[C@@H](CCC(=O)O)C(=O)N[C@@H](Cc1ccccc1)C(=O)O [IEWEF, Ile-Glu-Trp-Glu-Phe] (H-IEWEF-OH)
ACE [3]; replicate 1
  inhibition at 86.57 µM: 58.4%
  inhibition at 173.13 µM: 65.3%
  inhibition at 346.26 µM: 72.2%
  inhibition at 692.52 µM: 66.8%
  inhibition at 2770.08 µM: 91.2%
ACE [3]; replicate 2
  inhibition at 86.57 µM: 57.8%
  inhibition at 173.13 µM: 59.3%
  inhibition at 346.26 µM: 69.3%
  inhibition at 692.52 µM: 74.4%
  inhibition at 2770.08 µM: 91%
ACE [3]; replicate 3
  inhibition at 86.57 µM: 57.9%
  inhibition at 173.13 µM: 65%
  inhibition at 346.26 µM: 70.5%
  inhibition at 692.52 µM: 74.5%
  inhibition at 2770.08 µM: 91%
ACE [3]; ACE 100 mU/mL from rabbit lung, HHL 5.40 mmol/L, 0.1 mol/L sodium borate buffer with 0.3 mol/L NaCl pH 8.3, 10 min pre-incubation, 15 min at 37 °C, HPLC-UV 228 nm, mean ± SD, n = 3, read-out: IC50 value against ACE
  IC50: 41.3 µM

## LLYQEPLGPVR
ACE [1]; from casein hydrolysate, ref Liu et al. [2020]
  Inhibition mode: non-competitive

## PPLLFAAL
ACE [1]; from Takifugu flavidus, ref Su et al. [2021]
  Inhibition mode: non-competitive
